This passage reports melting point results from a melting point compilation (Tetko et al.; mined from patent text by program, amines drawn as free bases though some values may be those of a salt).

Structures are written as SMILES. Some results are limits rather than exact numbers.

`C1=C(c2ccc3ccccc3c2)CCN(Cc2c[nH]c3ncccc23)C1` registered a melting point of 223 to 225 °C.

With `COCCOc1cccc2c1C(=O)c1ccccc1C2=O`, the melting point fell in the range of 146 to 147 °C.

For the molecule `COc1ccccc1NC(=O)CN1CCN(c2ncccc2C#N)CC1`, the melting point lay within 174 to 175 °C.

For the molecule `NNC1(Cl)C=Cc2nc(Cl)cnc2C1` (centres undefined), the melting point is less than 250 °C.

As to `COCC(=O)N[C@H]1CC[C@H](CCN2CCN(c3nccc4ccoc34)CC2)CC1`, the melting point came out at 132 °C.

The molecule `Cc1ccc(S(=O)(=O)OCCCCO[N+](=O)[O-])cc1` displayed a melting point of 38 to 40 °C.

The molecule `Cc1cc(C)cc(C(=O)OCC2(N3CCN(C(=O)OC(C)(C)C)CC3)Cc3ccccc3C2)c1` displayed a melting point of 139 °C.

Regarding `CCOc1cc(-c2cc(C(F)(F)F)n3ncc(C(=O)Nc4cccc(S(C)(=O)=O)c4)c3n2)ccc1C(F)(F)F`, the melting point came out at 215 °C.

`CN(C)c1ccc(-c2nc(N(C)C)nnc2-c2ccc(F)cc2)cc1` returned a melting point of 157 to 160 °C.

Take `Nc1nc2c(ncn2[C@H]2CC[C@@H](CO)C2)c(=O)[nH]1`: the melting point came to 269 °C.

For `COC(=O)N=c1[nH]c2ccccc2n1C1CCN(Cc2ccccc2)CC1`, the melting point was determined as 170 °C.

In turn, `COc1ccc2c(c1)c(CC(=O)O)c(C)n2Cc1ccccc1OC` showed a melting point of 176 to 180 °C.

On to `CS(=O)(=O)c1cc(Br)ccc1C(=O)O`, for which the melting point turned out to be 220 °C.

The molecule `O=C1CCCNc2ccc(Cl)cc21` showed a melting point of 103 to 104 °C.

In the case of `CC(=O)NC[C@H]1CN(c2ccc(N3CCN(C(=O)CO)CC3)c(F)c2)C(=O)O1`, the melting point lay in the range of 87 to 90 °C.

As for `CCCCc1ccc(C(=O)C(CC(=O)N[C@@H](Cc2cc(F)cc(F)c2)[C@H](O)CNCc2cccc(CC)c2)Cc2ccccc2)cc1` (some centres undefined), the melting point is 42 to 45 °C.

`CN1C(=O)Cn2c(C(=O)N3CCOCC3)nnc2-c2cc(Cl)ccc21`: the melting point is 200 to 201 °C.

`CNC(=O)[C@@H]1CCCN1C(=O)[C@H](C)NC(=O)OCc1ccccc1` displayed a melting point of 126 to 129 °C.

As to `COc1ccc(C2=NN(Cc3ccccc3)C(=O)[C@H]3CCCC[C@@H]23)cc1OC1CCCC1` (relative stereo), the melting point was 91 to 92 °C.

With `N#Cc1cc2c(c(N3CCN(CCCCN4C(=O)c5ccccc5S4(=O)=O)CC3)c1)OCCO2`, the melting point lay within 162 to 164 °C.

In turn, `COC(=O)c1ccc2oc3ccccc3c2c1C(=O)OC` displayed a melting point of 126 °C.

Take `Cn1c(NC(=O)OCc2ccccc2)c(-c2ccccc2)c2cc(Cl)ccc21`: the melting point came out at 164 °C.

For `CCc1nn2ccccc2c1N(CCCF)C(C)=O`, the melting point was in the range of 76.6 to 79.6 °C.

For the molecule `CCOC(=O)C1=C(CCl)N2CCOC2(C)C(C(=O)OC)C1c1ccccc1Cl` (centres undefined), the melting point lay within 142 to 143 °C.

For `CCNc1ncccc1-c1cscc1-c1cccnc1F`, the melting point lay in the range of 127 to 129 °C.

`CCCCc1ccc2c(=O)c(O)c(-c3cc(O)c(O)c(O)c3)oc2c1` showed a melting point of 142 °C.

Regarding `O=C(CSc1ccccc1)Nc1c(Cl)ccc2nc(N3CC[C@@H](O)C3)ccc12`, the melting point lay in the range of 246 to 249 °C.

In the case of `COc1ccc(Cn2cnc3c(-c4ccco4)nc(C(C)C)nc32)cc1`, the melting point was found to be 123 °C.

Molecule `CCOC(=O)C(C#N)=Cc1c(OC)nc2c(C)cccn12` showed a melting point of 127 to 129 °C.

For the molecule `N#Cc1cnc2sc(Cl)cc2c1Nc1ccc2[nH]ccc2c1`, the melting point was 228 °C.

Regarding `CCOCOc1c(-c2ccc(C(=O)Nc3ccc(OC(C)=O)cc3)cc2)ccc2cc(OC)c(C34CC5CC(CC(C5)C3)C4)cc12`, the melting point was 206 to 207 °C.

`NS(=O)(=O)c1ncccc1C(=O)OC1COC1` showed a melting point of 140 to 142 °C.

With `Cn1c(=O)cc(CCc2cccc(Cl)c2)c2cc(C(N)(c3ccc(Cl)cc3)c3cccnc3)ccc21` (centres undefined), the melting point worked out at 90 °C.

`NC(=S)C(c1ccc(Cl)cc1)c1c(Cl)cc(-n2ncc(=O)[nH]c2=O)cc1Cl` (centres undefined) showed a melting point of 263 °C.

A word on the melting point: it is the temperature of the solid-liquid transition.
